Reference: article PMC7603405 (Nature, 2020)
Entries after “also recorded” stand apart in the source; their conditions may differ. Peptide text beside a SMILES is read from it. * marks the point of attachment. Cbz = O=C(OCc1ccccc1)*; CHN2 = [N-]=[N+]=C*

Key:
[1] = test system: SARS-CoV-2 USA-WA1/2020; assay type: cell-based; conditions: 2.5 and 1 μM, Vero E6, Table S3
[2] = test system: SARS-CoV-2 HKU-001a; assay type: cell-based; conditions: positive control of the screen
[3] = test system: SARS-CoV-2 USA-WA1/2020; experiment: Time-of-addition assay in Vero E6 cells; assay type: cell-based; conditions: 2.5 μM
[4] = test system: SARS-CoV-2 USA-WA1/2020; assay type: cell-based
[5] = test system: SARS-CoV-2 HKU-001a; assay type: cell-based
[6] = read-out: Cmax; humans; cited from earlier work
[7] = cited from earlier work
[8] = test system: SARS-CoV-2 USA-WA1/2020; experiment: Drug synergy quantification with remdesivir in Vero E6 cells; assay type: cell-based
[9] = target: SARS-CoV-2 papain-like protease (PLpro) (Severe acute respiratory syndrome coronavirus 2, UniProt P0DTD1); assay type: biochemical; conditions: 1 to 50 μM
[10] = target: SARS-CoV-2 main protease (Mpro) (Severe acute respiratory syndrome coronavirus 2, UniProt P0DTD1); assay type: biochemical; conditions: 1 to 50 μM
[11] = test system: COVID-19; conditions: COVID-19 patients, NIAID trial; cited from earlier work
[12] = test system: SARS-CoV-2; assay type: cell-based; conditions: 5 μM; reversed by RAR antagonist Ro41-5253 5 μM

COc1cc(F)cc2c1-c1ccc(F)cc1C21NC(=O)NC1=O (stereo not drawn) [AL 3152]
validation as inhibitor of SARS-CoV-2 replication [1]: validated

Cc1cccc(/C=N/Nc2cc(N3CCOCC3)n3nc(-c4ccncc4)cc3n2)c1 [APY0201]
antiviral activity in CPE assay [2]: confirmed the potential antiviral activity

CCN(CC)CCCNc1ccnc2cc(Cl)ccc12 [AQ-13]
validation as inhibitor of SARS-CoV-2 replication [1]: validated

Cc1cccc(/C=N/Nc2cc(N3CCOCC3)nc(OCCc3ccccn3)n2)c1 [Apilimod]
step of viral life cycle inhibited, time of addition [3]: inhibit viral replication during entry | reduction of number of infected cells [4]: 85% | antiviral activity in ex vivo lung culture [5]: potently antagonizes viral replication | Cmax [6]: 265 nM | doses showing a desirable safety profile in humans ([7]; well tolerated): ≤ 125 mg BID

COc1ccc(CCN2CCC(Nc3nc4ccccc4n3Cc3ccc(F)cc3)CC2)cc1 [Astemizole]
validation as inhibitor of SARS-CoV-2 replication [1]: confirmed to inhibit SARS-CoV-2 replication

COc1ccc2cc1Oc1ccc(cc1)C[C@H]1c3cc(c(OC)cc3CCN1C)Oc1c(OC)c(OC)cc3c1[C@H](C2)N(C)CC3 [Hanfangchin A, Tetrandrine]
synergy with remdesivir [8]: notable levels of synergy with remdesivir | validation as inhibitor of SARS-CoV-2 replication [1]: validated

CC(/C=C/C=C(\C)c1cc(C(C)(C)C)cc(C(C)(C)C)c1)=C\C(=O)O [LGD-1550]
validation as inhibitor of SARS-CoV-2 replication [1]: validated

C[C@@H]1CS/C(=N\NC(=O)C(=O)[C@H](NC(=O)C2CCCCCC2)C2CCOCC2)N1C [ONO 5334]
inhibitory activity upon PLpro [9]: lack potent inhibitory activity | inhibitory activity upon 3CLpro / Mpro [10]: lack potent inhibitory activity | reduction of number of infected cells [4]: 72% | tolerability in phase II clinical trials ([7]; treatment of osteoporosis): well tolerated

CCC(CC)COC(=O)[C@H](C)N[P@](=O)(OC[C@H]1O[C@@](C#N)(c2ccc3c(N)ncnn23)[C@H](O)[C@@H]1O)Oc1ccccc1 [Remdesivir]
improved time to recovery in treated patients [11]: 47%

CC[C@H](NC(=O)[C@H](CS(=O)(=O)CC1CC1)N[C@@H](c1ccc(F)cc1)C(F)(F)F)C(=O)C(=O)NC1CC1 [VBY-825]
inhibitory activity upon PLpro [9]: lack potent inhibitory activity | inhibitory activity upon 3CLpro / Mpro [10]: lack potent inhibitory activity

CC(C)CC(NC(=O)OCc1ccccc1)C(=O)NC(C(=O)NCC(=O)C=[N+]=[N-])C(C)C (stereo not drawn) [Z LVG CHN2] (Cbz-Leu-Val-Gly-CHN2; configuration not given here)
inhibitory activity upon PLpro [9]: lack potent inhibitory activity | inhibitory activity upon 3CLpro / Mpro [10]: lack potent inhibitory activity

CCOC(=O)c1ncc2[nH]c3cccc(OC(C)C)c3c2c1C [ZK-93426]
validation as inhibitor of SARS-CoV-2 replication [1]: validated

COc1cc(C)c(/C=C/C(C)=C/C=C/C(C)=C/C(=O)O)c(C)c1C [acitretin]
validation as inhibitor of SARS-CoV-2 replication [1]: validated; also recorded: confirmed to inhibit SARS-CoV-2 replication

CCN(CC)CCCC(C)Nc1ccnc2cc(Cl)ccc12 (stereo not drawn) [chloroquine]
validation as inhibitor of SARS-CoV-2 replication [1]: confirmed to inhibit SARS-CoV-2 replication

CC(C)CCC(=O)CC1c2ccccc2C(=O)N1c1ccc2ccc(Cl)nc2n1 (stereo not drawn) [pagoclone]
validation as inhibitor of SARS-CoV-2 replication [1]: validated

CC1(C)CCC(C)(C)c2cc(NC(=O)c3ccc(C(=O)O)cc3)ccc21 [tamibarotene]
validation as inhibitor of SARS-CoV-2 replication [1]: validated

CCOC(=O)c1ccc(C#Cc2ccc3c(c2)C(C)(C)CCS3)nc1 [tazarotene]
validation as inhibitor of SARS-CoV-2 replication [1]: validated | effect on viral replication, chemical epistasis [12]: inhibition of viral replication

CC1=C(/C=C/C(C)=C/C=C/C(C)=C/C(=O)O)C(C)(C)CCC1 [tretinoin]
validation as inhibitor of SARS-CoV-2 replication [1]: validated

CCN(C(C)=O)c1cccc(-c2ccnc3c(C#N)cnn23)c1 [zaleplon GR]
validation as inhibitor of SARS-CoV-2 replication [1]: validated

MDL 28170
inhibitory activity upon PLpro [9]: lack potent inhibitory activity | inhibitory activity upon 3CLpro / Mpro [10]: lack potent inhibitory activity | reduction of number of infected cells [4]: 65%
